Test results as given in the NIST ThermoML archive (doi:10.1016/j.jct.2014.05.014).

Test: cn = amount concentration of the nth substance listed, in mol/dm3
Conditions: 101.3 kPa, Liquid; for viscosity: Falling or rolling sphere viscometry; for mass density: Vibrating tube method; for electrical conductivity: Alternating current cell with electrodes

CC(N)C(=O)[O-].[K+] (stereo not drawn) [potassium DL-alaninate] + O
Conditions	electrical conductivity [S/m]	mass density [kg/m3]	viscosity [mPa·s]
323.15 K, c1 = 0.495	–	1016.2	–
323.15 K, c1 = 1.014	–	1043.4	–
323.15 K, c1 = 1.509	–	1069.9	–
323.15 K, c1 = 1.954	–	1094.2	–
323.15 K, c1 = 1.999	–	–	1.069
323.15 K, c1 = 2.507	–	1121.8	–
323.15 K, c1 = 2.522	–	–	1.301
323.15 K, c1 = 2.988	–	1145.7	–
323.15 K, c1 = 3.048	–	–	1.549
323.15 K, c1 = 3.499	–	1170.3	–
328.15 K, c1 = 0.495	–	1013.9	–
328.15 K, c1 = 0.514	–	–	0.596
328.15 K, c1 = 0.526	5.89	–	–
328.15 K, c1 = 1.009	9.68	–	–
328.15 K, c1 = 1.014	–	1041	–
328.15 K, c1 = 1.029	–	–	0.703
328.15 K, c1 = 1.499	12.2	–	–
328.15 K, c1 = 1.509	–	1067.4	–
328.15 K, c1 = 1.524	–	–	0.854
328.15 K, c1 = 1.954	–	1091.5	–
328.15 K, c1 = 1.999	–	–	0.985
328.15 K, c1 = 2.018	13.8	–	–
328.15 K, c1 = 2.501	14.6	–	–
328.15 K, c1 = 2.507	–	1119	–
328.15 K, c1 = 2.522	–	–	1.201
328.15 K, c1 = 2.988	–	1143	–
328.15 K, c1 = 3.046	14.9	–	–
328.15 K, c1 = 3.048	–	–	1.413
328.15 K, c1 = 3.497	14.7	–	–
328.15 K, c1 = 3.499	–	1167.5	–
333.15 K, c1 = 0.495	–	1011.5	–
333.15 K, c1 = 0.514	–	–	0.547
333.15 K, c1 = 0.526	6.27	–	–
333.15 K, c1 = 1.009	10.3	–	–
333.15 K, c1 = 1.014	–	1038.5	–
333.15 K, c1 = 1.029	–	–	0.649
333.15 K, c1 = 1.499	13	–	–
333.15 K, c1 = 1.509	–	1064.9	–
333.15 K, c1 = 1.524	–	–	0.799
333.15 K, c1 = 1.954	–	1088.8	–
333.15 K, c1 = 1.999	–	–	0.902
333.15 K, c1 = 2.018	14.6	–	–
333.15 K, c1 = 2.501	15.5	–	–
333.15 K, c1 = 2.507	–	1116.3	–
333.15 K, c1 = 2.522	–	–	1.104
333.15 K, c1 = 2.988	–	1140.2	–
333.15 K, c1 = 3.046	15.8	–	–
333.15 K, c1 = 3.048	–	–	1.286
333.15 K, c1 = 3.497	15.7	–	–
333.15 K, c1 = 3.499	–	1164.6	–
338.15 K, c1 = 0.495	–	1008.9	–
338.15 K, c1 = 0.514	–	–	0.507
338.15 K, c1 = 0.526	6.64	–	–
338.15 K, c1 = 1.009	10.8	–	–
338.15 K, c1 = 1.014	–	1035.9	–
338.15 K, c1 = 1.029	–	–	0.602
338.15 K, c1 = 1.499	13.8	–	–
338.15 K, c1 = 1.509	–	1062.1	–
338.15 K, c1 = 1.524	–	–	0.742
338.15 K, c1 = 1.954	–	1086.1	–
338.15 K, c1 = 1.999	–	–	0.83
338.15 K, c1 = 2.018	15.5	–	–
338.15 K, c1 = 2.501	16.4	–	–
338.15 K, c1 = 2.507	–	1113.5	–
338.15 K, c1 = 2.522	–	–	1.015
338.15 K, c1 = 2.988	–	1137.3	–
338.15 K, c1 = 3.046	16.8	–	–
338.15 K, c1 = 3.048	–	–	1.176
338.15 K, c1 = 3.497	16.7	–	–
338.15 K, c1 = 3.499	–	1161.6	–
343.15 K, c1 = 0.495	–	1006.3	–
343.15 K, c1 = 0.514	–	–	0.475
343.15 K, c1 = 0.526	7.02	–	–
343.15 K, c1 = 1.009	11.4	–	–
343.15 K, c1 = 1.014	–	1033.1	–
343.15 K, c1 = 1.029	–	–	0.563
343.15 K, c1 = 1.499	14.5	–	–
343.15 K, c1 = 1.509	–	1059.4	–
343.15 K, c1 = 1.524	–	–	0.693
343.15 K, c1 = 1.954	–	1083.4	–
343.15 K, c1 = 1.999	–	–	0.77
343.15 K, c1 = 2.018	16.3	–	–
343.15 K, c1 = 2.501	17.4	–	–
343.15 K, c1 = 2.507	–	1110.5	–
343.15 K, c1 = 2.522	–	–	0.94
343.15 K, c1 = 2.988	–	1134.4	–
343.15 K, c1 = 3.046	17.8	–	–
343.15 K, c1 = 3.048	–	–	1.087
343.15 K, c1 = 3.497	17.7	–	–
343.15 K, c1 = 3.499	–	1158.6	–
